Data reported in paper PMC4584933, “Establishing the pig as a large animal model for vaccine development against human cancer” (Frontiers in Genetics, 2015).

Columns and labels:
SLA-2*05:02 = assay: Peptide-MHC class I complex stability, scintillation proximity assay (SPA); set-up: species or system pig; settings: biotinylated recombinant SLA heavy chain, 125I-β2m, excess unlabeled β2m, read every 40 min, number only if t1/2 ≥ 0.5 h, '-' = not stably binding
Protocol: (§1) The stability of the selected 198 peptides in complex with relevant SLA class I molecules and β2m was determined using a scintillation proximity assay (SPA), as previously described (Harndahl et al., [2011]). Briefly, biotinylated recombinant MHC class I heavy chains were attached to a streptavidin-coated scintillation microplate together with iodinated (^125I) β2m and candidate peptide resulting in a scintillation signal, which was consecutively measured every 40 min by a scintillation plate counter. The duration of this signal is directly correlated to the stability of the peptide-MHC class I-β2m complex under dissociating conditions and in the presence of excess unlabeled β2m (Harndahl et al., [2011]). Peptides with a half-life ≥ 0.5 h were selected as stable binders.

PBMCs = assay: In vitro peptide stimulation of porcine PBMCs, IFN-γ release assay (ELISA); assay type: cell-based, pig; set-up: key to T cell response: “x” indicates that a response was found to this given peptide at least once; settings: 5 μg/ml peptide; for T cell response: PBMCs of immunized pigs, 2 × 10^5/well, 67.5–70.0 h, IFN-γ ELISA, response = 2-fold increase vs day -2 and at least 25 pg/ml IFN-γ, found at least once, SLA restriction not included
SLA-2*04:01 = assay: Peptide-MHC class I complex stability, scintillation proximity assay (SPA); set-up: species or system pig; settings: biotinylated recombinant SLA heavy chain, 125I-β2m, excess unlabeled β2m, read every 40 min, number only if t1/2 ≥ 0.5 h, '-' = not stably binding
Protocol: as §1

SLA-3*04:01 = assay: as above; set-up: species or system pig; settings: biotinylated recombinant SLA heavy chain, 125I-β2m, excess unlabeled β2m, read every 40 min, number only if t1/2 ≥ 0.5 h, '-' = not stably binding
Protocol: as §1

Sequence	Binder (t1/2 ≥ 0.5 h): half-life of peptide-SLA-2*05:02 complex (SLA-2*05:02)	T cell response (PBMCs)	further results
AIAKNLPELI [IDO3, porcine IDO-derived 9-11mer peptide]	0.9 h		
ALQKALLDI [IDO5, porcine IDO-derived 9-11mer peptide]	- (t1/2 (hours) is listed for each of the stably binding peptides (t1/2 ≥ 0.5 h))	x	
ANRISAFGY [RhoC2, porcine RhoC-derived 9-11mer peptide]		x	Binder (t1/2 ≥ 0.5 h): half-life of peptide-SLA-2*04:01 complex (SLA-2*04:01): 2.6 h; Binder (t1/2 ≥ 0.5 h): half-life of peptide-SLA-3*04:01 complex (SLA-3*04:01): - (t1/2 (hours) is listed for each of the stably binding peptides (t1/2 ≥ 0.5 h))
DIRKVLPRNI [IDO10, porcine IDO-derived 9-11mer peptide]	- (t1/2 (hours) is listed for each of the stably binding peptides (t1/2 ≥ 0.5 h))		
DLRQDEHTR [RhoC6, porcine RhoC-derived 9-11mer peptide]	0.5 h	x	
DVILMCFSI [RhoC12, porcine RhoC-derived 9-11mer peptide]	5.9 h	x	
EELPHPYDAWI [IDO14, porcine IDO-derived 9-11mer peptide]	- (t1/2 (hours) is listed for each of the stably binding peptides (t1/2 ≥ 0.5 h))		
EIAAASAIKV [IDO15, porcine IDO-derived 9-11mer peptide]	2.6 h	x	maximum level of secreted IFN-γ (PBMCs; pig 2042 (CASAC), day 12, following 72 h of stimulation, ELISA): 280 pg/mL
ELAKMKQEP [RhoC15, porcine RhoC-derived 9-11mer peptide]	- (t1/2 (hours) is listed for each of the stably binding peptides (t1/2 ≥ 0.5 h))		
ELAKMKQEPVR [RhoC16, porcine RhoC-derived 9-11mer peptide]	0.8 h	x	
ELPHPYDAWI [IDO18, porcine IDO-derived 9-11mer peptide]	5.8 h		
ENIPEKWTP [RhoC17, porcine RhoC-derived 9-11mer peptide]	1.1 h		
ENIPEKWTPEV [RhoC18, porcine RhoC-derived 9-11mer peptide]	1.5 h	x	
ENRGTGGTNVI [IDO19, porcine IDO-derived 9-11mer peptide]	- (t1/2 (hours) is listed for each of the stably binding peptides (t1/2 ≥ 0.5 h))		
FLVSLLVEI [IDO25, porcine IDO-derived 9-11mer peptide]	- (t1/2 (hours) is listed for each of the stably binding peptides (t1/2 ≥ 0.5 h))		
HKALEVFHQI [IDO36, porcine IDO-derived 9-11mer peptide]	- (t1/2 (hours) is listed for each of the stably binding peptides (t1/2 ≥ 0.5 h))		
HLQIVTKYI [IDO38, porcine IDO-derived 9-11mer peptide]	0.5 h		
HLQIVTKYIVI [IDO39, porcine IDO-derived 9-11mer peptide]	0.6 h		
IAIAKNLPELI [IDO44, porcine IDO-derived 9-11mer peptide]	- (t1/2 (hours) is listed for each of the stably binding peptides (t1/2 ≥ 0.5 h))		
KALEVFHQI [IDO45, porcine IDO-derived 9-11mer peptide]	- (t1/2 (hours) is listed for each of the stably binding peptides (t1/2 ≥ 0.5 h))		
KLSEKLGLPPI [IDO56, porcine IDO-derived 9-11mer peptide]	- (t1/2 (hours) is listed for each of the stably binding peptides (t1/2 ≥ 0.5 h))		
KNKRRRGCPI [RhoC31, porcine RhoC-derived 9-11mer peptide]		x	Binder (t1/2 ≥ 0.5 h): half-life of peptide-SLA-3*04:01 complex (SLA-3*04:01): 0.7 h
KNMDILFSF [IDO58, porcine IDO-derived 9-11mer peptide]		x	Binder (t1/2 ≥ 0.5 h): half-life of peptide-SLA-2*04:01 complex (SLA-2*04:01): 8.0 h; Binder (t1/2 ≥ 0.5 h): half-life of peptide-SLA-3*04:01 complex (SLA-3*04:01): - (t1/2 (hours) is listed for each of the stably binding peptides (t1/2 ≥ 0.5 h))
